# Results from the supplement of paper PMC10307832.
# Legend:
# Assay in all cases: relative viability (nuclei count vs DMSO), 5 days (fraction); higher = more cells survive
# [1] = compound: CC1=C(C(=NN1)C)CC2=C(C3=C(S2)N(C(=O)N(C3=O)C)CC(C)C)C(=O)N4C[C@@H](CO4)O + Cc1nc(NC(=O)N2CCC[C@H]2C(N)=O)sc1-c1ccnc(C(C)(C)C(F)(F)F)c1 [Alpelisib] (partner 2 µM)
# Summary of the method: (§1)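 Lung cancer cell lines in 1536-well plates got either a single drug or a fixed anchor-drug dose together with five library-drug doses (not always all listed) in √10 steps, by pin tool, on the day after seeding. Nuclei were counted after 5 days, and relative viability is the treated-to-vehicle ratio of nuclei counts. Values are medians of duplicate plates.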
# [2] = compound: CC1=C(C(=NN1)C)CC2=C(C3=C(S2)N(C(=O)N(C3=O)C)CC(C)C)C(=O)N4C[C@@H](CO4)O + CC(=O)Nc1cccc(-n2c(=O)n(C3CC3)c(=O)c3c(Nc4ccc(I)cc4F)n(C)c(=O)c(C)c32)c1 [Trametinib] (partner 0.02 µM)
# Summary of the method: as §1
# [3] = compound: CC1=C(C(=NN1)C)CC2=C(C3=C(S2)N(C(=O)N(C3=O)C)CC(C)C)C(=O)N4C[C@@H](CO4)O + N=C(N)NC(=N)NCCc1ccccc1 [Phenformin] (partner 250 µM)
# Summary of the method: as §1
# IDH-C35 + Vorinostat = compound: Cc1ccccc1C(C(=O)NC1CCCCC1)N(C(=O)Cn1ccnc1C)c1cccc(F)c1 [IDH-C35] + O=C(CCCCCCC(=O)Nc1ccccc1)NO [Vorinostat] (partner 1 µM)
# Summary of the method: as §1
Cell Line,relative viability ([1]; first compound 0.0025 µM),relative viability ([1]; first compound 0.007906 µM),relative viability ([1]; first compound 0.025 µM),relative viability ([1]; first compound 0.07906 µM),relative viability ([1]; first compound 0.25 µM),relative viability ([2]; first compound 0.0025 µM),relative viability ([2]; first compound 0.007906 µM),relative viability ([2]; first compound 0.025 µM),relative viability ([2]; first compound 0.07906 µM),relative viability ([2]; first compound 0.25 µM),relative viability ([3]; first compound 0.0025 µM),relative viability ([3]; first compound 0.007906 µM),relative viability ([3]; first compound 0.025 µM),relative viability ([3]; first compound 0.07906 µM),relative viability ([3]; first compound 0.25 µM),relative viability (IDH-C35 + Vorinostat; first compound 0.08 µM),relative viability (IDH-C35 + Vorinostat; first compound 0.253 µM),relative viability (IDH-C35 + Vorinostat; first compound 0.8 µM),relative viability (IDH-C35 + Vorinostat; first compound 8 µM),relative viability (IDH-C35 + Vorinostat; first compound 2.53 µM)
LCLC-97TM1,0.276,0.206,0.257,0.188,0.228,0.178,0.184,0.249,0.158,0.189,0.483,0.432,0.429,0.477,0.51,0.706,0.729,0.67,0.436,
LCLC-103H,1.06,1,0.959,0.957,0.896,0.681,0.689,0.664,0.688,0.661,0.329,0.367,0.393,0.341,0.317,0.782,0.755,0.87,0.625,0.591
LK-2,1.06,1.03,1.09,1.05,1.08,0.703,0.952,0.651,0.613,0.61,0.304,0.321,0.195,0.187,0.263,0.352,0.273,0.216,0.165,0.34
LOU-NH91,0.734,0.626,0.791,0.799,0.708,0.802,0.756,0.812,0.826,0.792,0.763,0.752,0.731,0.844,0.733,0.916,0.946,0.894,0.888,0.8
LU99A,0.559,0.589,0.581,0.568,0.611,0.522,0.606,0.452,0.57,0.532,0.84,1.06,0.798,0.898,0.927,0.533,0.422,0.483,0.505,0.481
LXF-289,1.01,1.01,1.03,1.01,1.07,0.705,0.702,0.669,0.641,0.689,0.525,0.52,0.532,0.537,0.556,0.768,0.787,0.86,0.799,0.62
NCI-H23,0.823,0.767,0.666,0.634,0.892,0.42,0.526,0.421,0.359,0.397,0.794,0.858,0.839,0.804,0.774,0.609,0.582,0.578,0.636,0.641
NCI-H322M,0.769,0.793,0.866,0.831,0.748,0.503,0.577,0.471,0.527,0.433,0.825,0.673,0.793,0.93,0.829,0.875,0.866,0.798,0.922,0.911
NCI-H358,0.893,0.906,0.78,0.903,1.04,0.146,0.125,0.146,0.125,0.129,0.35,0.395,0.337,0.311,0.36,0.709,0.659,0.686,0.611,0.614
NCI-H441,0.83,0.602,0.616,1.06,0.902,0.532,0.424,0.458,0.478,0.436,0.902,0.943,0.799,0.847,0.865,0.906,0.74,0.787,0.887,0.683
NCI-H460,0.721,0.493,0.575,0.492,0.571,0.158,0.149,0.186,0.136,0.206,0.526,0.586,0.491,0.553,0.515,0.723,0.693,0.676,0.649,0.725
NCI-H520,0.835,1.04,0.612,0.536,0.836,0.671,0.824,0.455,0.457,0.463,0.501,0.167,0.192,0.179,0.198,0.68,0.728,0.899,0.699,0.669
NCI-H596,0.474,0.53,0.482,0.567,0.589,0.789,0.871,0.878,0.76,0.886,0.803,0.764,0.73,0.809,1.05,0.733,0.584,0.721,0.604,0.725
NCI-H647,1.16,1.03,1.19,1.32,1.75,0.506,0.582,0.579,0.558,0.448,0.655,0.369,0.393,0.555,0.53,0.541,0.565,0.577,0.528,0.769
NCI-H650,1.28,1.11,0.972,1,1.18,1.09,1.01,1.15,0.982,1.04,0.499,0.431,0.4,0.458,0.472,0.413,0.434,0.515,0.505,
NCI-H661,0.914,0.803,0.559,0.654,0.421,0.624,0.59,0.505,0.583,0.56,0.286,0.304,0.27,0.22,0.277,0.753,0.816,0.778,0.721,0.756
NCI-H727,0.535,0.512,0.731,0.55,0.666,0.348,0.374,0.442,0.379,0.34,0.424,0.504,0.486,0.489,0.372,1.2,1.08,1.02,1.16,1.17
NCI-H838,1.05,1.05,0.989,0.967,0.974,0.498,0.569,0.393,0.452,0.505,0.567,0.594,0.433,0.453,0.489,0.706,0.675,0.718,0.72,0.763
NCI-H1355,0.937,0.887,0.878,0.893,0.74,0.461,0.423,0.472,0.402,0.442,0.493,0.473,0.429,0.481,0.453,0.665,0.691,0.601,0.691,0.646
NCI-H1395,1.04,0.898,1.06,0.983,1.01,1.07,0.988,0.994,1.04,1,0.336,0.316,0.298,0.314,0.312,0.773,0.694,0.707,0.766,0.927
NCI-H1437,0.993,1,0.946,0.972,1.06,0.617,0.675,0.543,0.563,0.511,0.318,0.313,0.301,0.297,0.306,0.931,0.851,0.869,0.858,0.843
NCI-H1651,1.07,1.02,0.923,0.961,0.945,0.865,0.861,0.849,0.798,0.819,0.374,0.214,0.259,0.239,0.261,0.539,0.592,0.531,0.543,0.513
NCI-H1666,1.06,1.01,1.02,1.13,0.953,0.876,0.824,0.885,0.786,0.891,0.571,0.621,0.548,0.538,0.593,1.04,0.997,1.08,0.971,1.04
NCI-H1734,0.692,0.771,0.667,0.757,0.677,0.666,0.757,0.675,0.62,0.665,0.349,0.218,0.168,0.164,0.156,0.712,0.846,0.83,0.815,0.826
NCI-H1755,0.963,1.03,0.898,0.849,1.02,0.829,0.818,0.745,0.73,0.761,0.637,0.607,0.589,0.583,0.622,0.738,0.8,0.82,0.725,0.809
NCI-H1793,0.724,0.826,0.546,0.554,0.742,0.378,0.435,0.392,0.455,0.36,0.211,0.213,0.138,0.138,0.135,0.784,0.82,0.773,0.881,0.913
